Laboratory results reported in patent US9492471B2, “Methods of treating a disease or disorder associated with Bruton'S Tyrosine Kinase” (Celgene Avilomics Research, Inc., priority 2013, dated 2016).
Where two headings read alike, the source gives them in different places.

Tests used:
Test in all cases: HotSpot kinase profiling
Format in all cases: biochemical
[1] = molecular target: T1, c-Src (Homo sapiens, UniProt P12931)
T1 construct: purchased Reaction Biology Corp
Method in brief: (§1)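 Activity is measured by radiolabel transfer captured on P81 filters after a 2 h room-temperature reaction of kinase, substrate and cofactors. Values are percent inhibition against DMSO.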

[2] = molecular target: T2, CK1a1 (Homo sapiens, UniProt P48729)
T2 construct: purchased Reaction Biology Corp
T2 sequence (P48729 whole entry): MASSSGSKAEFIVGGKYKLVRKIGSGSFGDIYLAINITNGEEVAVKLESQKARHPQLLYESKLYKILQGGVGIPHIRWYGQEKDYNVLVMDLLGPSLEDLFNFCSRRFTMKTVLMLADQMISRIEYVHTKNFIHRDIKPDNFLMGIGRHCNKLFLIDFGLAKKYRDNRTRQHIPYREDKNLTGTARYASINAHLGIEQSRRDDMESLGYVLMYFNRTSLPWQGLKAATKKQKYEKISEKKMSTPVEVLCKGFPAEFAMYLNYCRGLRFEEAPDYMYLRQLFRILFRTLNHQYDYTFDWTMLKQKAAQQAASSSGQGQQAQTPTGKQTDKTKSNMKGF
Method in brief: as §1

[3] = molecular target: T3, PRKX (Homo sapiens, UniProt P51817)
T3 construct: purchased Reaction Biology Corp
T3 sequence (P51817 1-358): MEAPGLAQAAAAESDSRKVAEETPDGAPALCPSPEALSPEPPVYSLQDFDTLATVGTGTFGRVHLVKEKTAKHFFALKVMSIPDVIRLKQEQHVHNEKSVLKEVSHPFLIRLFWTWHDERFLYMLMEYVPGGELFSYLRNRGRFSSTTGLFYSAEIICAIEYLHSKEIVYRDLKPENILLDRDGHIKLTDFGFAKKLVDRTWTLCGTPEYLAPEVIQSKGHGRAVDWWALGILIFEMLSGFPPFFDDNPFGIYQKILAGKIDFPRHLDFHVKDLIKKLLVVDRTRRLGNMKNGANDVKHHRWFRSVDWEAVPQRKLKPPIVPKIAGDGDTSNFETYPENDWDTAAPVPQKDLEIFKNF
Method in brief: as §1

[4] = molecular target: T4, ITK (Homo sapiens, UniProt Q08881)
T4 construct: purchased Reaction Biology Corp
T4 sequence (Q08881 1-620): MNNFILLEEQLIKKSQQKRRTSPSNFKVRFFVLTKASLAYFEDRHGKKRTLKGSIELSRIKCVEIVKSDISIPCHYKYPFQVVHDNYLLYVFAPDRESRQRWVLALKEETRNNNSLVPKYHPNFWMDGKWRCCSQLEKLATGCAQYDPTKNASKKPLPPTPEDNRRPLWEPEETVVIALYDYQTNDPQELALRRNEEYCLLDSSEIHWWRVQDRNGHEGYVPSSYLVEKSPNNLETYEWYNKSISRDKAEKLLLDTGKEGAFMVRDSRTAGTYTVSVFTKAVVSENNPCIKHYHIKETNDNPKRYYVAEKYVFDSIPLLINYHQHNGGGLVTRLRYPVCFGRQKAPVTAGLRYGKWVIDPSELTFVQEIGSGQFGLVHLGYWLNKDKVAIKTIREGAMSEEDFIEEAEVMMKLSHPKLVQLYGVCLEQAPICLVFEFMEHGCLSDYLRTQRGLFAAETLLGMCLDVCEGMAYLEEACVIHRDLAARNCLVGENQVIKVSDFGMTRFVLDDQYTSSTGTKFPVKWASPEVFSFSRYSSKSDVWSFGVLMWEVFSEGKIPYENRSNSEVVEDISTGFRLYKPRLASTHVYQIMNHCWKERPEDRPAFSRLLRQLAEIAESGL
Method in brief: as §1

[5] = molecular target: T5, WNK3 (Homo sapiens, UniProt Q9BYP7)
T5 construct: purchased Reaction Biology Corp
T5 sequence (Q9BYP7 whole entry): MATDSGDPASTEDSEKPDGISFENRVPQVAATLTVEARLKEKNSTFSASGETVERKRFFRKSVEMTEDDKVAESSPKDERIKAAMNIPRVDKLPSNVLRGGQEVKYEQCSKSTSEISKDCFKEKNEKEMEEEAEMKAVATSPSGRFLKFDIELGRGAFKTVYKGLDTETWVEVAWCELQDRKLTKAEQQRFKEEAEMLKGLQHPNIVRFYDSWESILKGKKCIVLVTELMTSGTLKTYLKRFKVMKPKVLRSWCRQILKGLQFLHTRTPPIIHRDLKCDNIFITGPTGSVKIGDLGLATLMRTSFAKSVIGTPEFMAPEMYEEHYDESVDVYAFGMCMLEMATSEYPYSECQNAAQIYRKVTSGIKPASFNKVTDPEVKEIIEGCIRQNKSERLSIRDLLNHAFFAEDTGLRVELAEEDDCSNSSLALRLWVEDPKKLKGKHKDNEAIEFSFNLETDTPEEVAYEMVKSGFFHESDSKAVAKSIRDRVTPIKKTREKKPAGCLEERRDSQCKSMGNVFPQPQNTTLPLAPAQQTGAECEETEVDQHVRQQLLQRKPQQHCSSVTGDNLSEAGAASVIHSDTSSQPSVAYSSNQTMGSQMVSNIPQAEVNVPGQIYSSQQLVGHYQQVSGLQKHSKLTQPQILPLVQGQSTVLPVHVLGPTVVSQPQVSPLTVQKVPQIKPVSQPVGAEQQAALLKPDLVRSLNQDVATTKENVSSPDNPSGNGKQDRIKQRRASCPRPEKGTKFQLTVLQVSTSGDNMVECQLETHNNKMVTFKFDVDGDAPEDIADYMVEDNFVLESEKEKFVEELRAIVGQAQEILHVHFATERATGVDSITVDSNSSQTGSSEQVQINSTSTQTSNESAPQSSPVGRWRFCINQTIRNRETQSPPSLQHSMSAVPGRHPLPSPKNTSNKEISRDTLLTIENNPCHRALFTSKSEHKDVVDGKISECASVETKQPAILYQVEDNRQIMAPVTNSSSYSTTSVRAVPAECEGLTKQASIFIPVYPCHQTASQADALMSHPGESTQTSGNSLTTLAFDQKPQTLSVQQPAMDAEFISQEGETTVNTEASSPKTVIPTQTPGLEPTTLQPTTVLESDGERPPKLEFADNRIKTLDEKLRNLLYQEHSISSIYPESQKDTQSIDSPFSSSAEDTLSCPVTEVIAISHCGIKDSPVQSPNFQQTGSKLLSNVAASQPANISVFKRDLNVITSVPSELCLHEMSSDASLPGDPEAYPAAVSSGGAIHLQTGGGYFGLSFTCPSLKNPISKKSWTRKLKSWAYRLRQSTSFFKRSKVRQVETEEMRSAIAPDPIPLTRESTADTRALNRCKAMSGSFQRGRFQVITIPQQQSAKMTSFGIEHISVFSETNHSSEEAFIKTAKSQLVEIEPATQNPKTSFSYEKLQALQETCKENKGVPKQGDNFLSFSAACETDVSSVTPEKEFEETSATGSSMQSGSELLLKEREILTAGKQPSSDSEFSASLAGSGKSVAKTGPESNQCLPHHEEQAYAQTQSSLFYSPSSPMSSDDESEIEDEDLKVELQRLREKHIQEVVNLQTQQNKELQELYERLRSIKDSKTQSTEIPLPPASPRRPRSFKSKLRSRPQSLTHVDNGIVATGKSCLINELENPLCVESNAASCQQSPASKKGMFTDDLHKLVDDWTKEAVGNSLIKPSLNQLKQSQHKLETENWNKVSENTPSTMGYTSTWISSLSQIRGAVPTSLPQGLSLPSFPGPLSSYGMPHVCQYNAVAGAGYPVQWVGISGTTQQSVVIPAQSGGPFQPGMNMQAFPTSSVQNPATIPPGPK
Method in brief: as §1

[6] = molecular target: T6, EPHA7 (Homo sapiens, UniProt Q15375)
T6 construct: purchased Reaction Biology Corp
Method in brief: as §1

[7] = molecular target: T7, PIM2 (Homo sapiens, UniProt Q9P1W9)
T7 construct: purchased Reaction Biology Corp
Method in brief: as §1

[8] = molecular target: T8, CDK5/p25 (Homo sapiens, UniProt Q00535)
T8 construct: purchased Reaction Biology Corp
Method in brief: as §1

[9] = molecular target: T9, SGK1 (Homo sapiens, UniProt O00141)
T9 construct: purchased Reaction Biology Corp
T9 sequence (O00141 1-431): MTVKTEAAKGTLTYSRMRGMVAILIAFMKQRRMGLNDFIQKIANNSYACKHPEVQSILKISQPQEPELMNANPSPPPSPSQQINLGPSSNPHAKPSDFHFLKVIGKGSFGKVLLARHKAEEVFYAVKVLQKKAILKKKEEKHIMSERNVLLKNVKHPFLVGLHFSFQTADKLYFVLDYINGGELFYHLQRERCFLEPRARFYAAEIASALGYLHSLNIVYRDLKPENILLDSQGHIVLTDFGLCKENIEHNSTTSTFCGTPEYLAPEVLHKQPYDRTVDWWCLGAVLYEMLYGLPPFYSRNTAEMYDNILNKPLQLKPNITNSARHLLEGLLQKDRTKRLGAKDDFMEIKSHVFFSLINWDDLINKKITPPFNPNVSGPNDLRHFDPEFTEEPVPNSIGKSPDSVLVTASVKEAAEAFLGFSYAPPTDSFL
Method in brief: as §1

[10] = molecular target: T10, ALK3/BMPR1A (Homo sapiens, UniProt P36894)
T10 construct: purchased Reaction Biology Corp
T10 sequence (P36894 24-532): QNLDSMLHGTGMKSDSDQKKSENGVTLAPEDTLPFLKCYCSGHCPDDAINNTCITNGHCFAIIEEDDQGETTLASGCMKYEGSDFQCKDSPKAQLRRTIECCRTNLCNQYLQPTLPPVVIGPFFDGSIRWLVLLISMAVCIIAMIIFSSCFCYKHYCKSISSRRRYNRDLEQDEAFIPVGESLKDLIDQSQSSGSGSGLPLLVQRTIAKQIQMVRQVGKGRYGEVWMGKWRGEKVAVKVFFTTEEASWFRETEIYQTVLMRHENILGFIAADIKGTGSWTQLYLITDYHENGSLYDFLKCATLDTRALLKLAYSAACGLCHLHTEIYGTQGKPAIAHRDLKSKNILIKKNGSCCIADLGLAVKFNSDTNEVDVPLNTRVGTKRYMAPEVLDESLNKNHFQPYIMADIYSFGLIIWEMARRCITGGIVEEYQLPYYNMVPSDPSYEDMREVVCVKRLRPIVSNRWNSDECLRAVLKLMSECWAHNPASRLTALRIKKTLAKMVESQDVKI
Method in brief: as §1

[11] = molecular target: T11, JNK3 (Homo sapiens, UniProt P53779)
T11 construct: purchased Reaction Biology Corp
T11 sequence (P53779 whole entry): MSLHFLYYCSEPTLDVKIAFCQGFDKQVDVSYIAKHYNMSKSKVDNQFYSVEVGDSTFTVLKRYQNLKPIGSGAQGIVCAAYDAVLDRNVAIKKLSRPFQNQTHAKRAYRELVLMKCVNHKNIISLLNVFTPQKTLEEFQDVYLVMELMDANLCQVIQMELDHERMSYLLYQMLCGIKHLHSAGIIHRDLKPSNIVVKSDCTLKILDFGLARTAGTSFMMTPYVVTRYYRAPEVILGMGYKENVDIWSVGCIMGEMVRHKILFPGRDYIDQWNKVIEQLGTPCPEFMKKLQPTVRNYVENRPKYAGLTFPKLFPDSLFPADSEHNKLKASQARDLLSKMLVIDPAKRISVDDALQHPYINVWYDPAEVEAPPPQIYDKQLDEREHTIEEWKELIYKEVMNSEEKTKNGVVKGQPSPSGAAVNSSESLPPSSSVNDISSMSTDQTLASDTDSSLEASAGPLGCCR
Method in brief: as §1

[12] = molecular target: T12, ROCK1 (Homo sapiens, UniProt Q13464)
T12 construct: purchased Reaction Biology Corp
T12 sequence (Q13464 whole entry): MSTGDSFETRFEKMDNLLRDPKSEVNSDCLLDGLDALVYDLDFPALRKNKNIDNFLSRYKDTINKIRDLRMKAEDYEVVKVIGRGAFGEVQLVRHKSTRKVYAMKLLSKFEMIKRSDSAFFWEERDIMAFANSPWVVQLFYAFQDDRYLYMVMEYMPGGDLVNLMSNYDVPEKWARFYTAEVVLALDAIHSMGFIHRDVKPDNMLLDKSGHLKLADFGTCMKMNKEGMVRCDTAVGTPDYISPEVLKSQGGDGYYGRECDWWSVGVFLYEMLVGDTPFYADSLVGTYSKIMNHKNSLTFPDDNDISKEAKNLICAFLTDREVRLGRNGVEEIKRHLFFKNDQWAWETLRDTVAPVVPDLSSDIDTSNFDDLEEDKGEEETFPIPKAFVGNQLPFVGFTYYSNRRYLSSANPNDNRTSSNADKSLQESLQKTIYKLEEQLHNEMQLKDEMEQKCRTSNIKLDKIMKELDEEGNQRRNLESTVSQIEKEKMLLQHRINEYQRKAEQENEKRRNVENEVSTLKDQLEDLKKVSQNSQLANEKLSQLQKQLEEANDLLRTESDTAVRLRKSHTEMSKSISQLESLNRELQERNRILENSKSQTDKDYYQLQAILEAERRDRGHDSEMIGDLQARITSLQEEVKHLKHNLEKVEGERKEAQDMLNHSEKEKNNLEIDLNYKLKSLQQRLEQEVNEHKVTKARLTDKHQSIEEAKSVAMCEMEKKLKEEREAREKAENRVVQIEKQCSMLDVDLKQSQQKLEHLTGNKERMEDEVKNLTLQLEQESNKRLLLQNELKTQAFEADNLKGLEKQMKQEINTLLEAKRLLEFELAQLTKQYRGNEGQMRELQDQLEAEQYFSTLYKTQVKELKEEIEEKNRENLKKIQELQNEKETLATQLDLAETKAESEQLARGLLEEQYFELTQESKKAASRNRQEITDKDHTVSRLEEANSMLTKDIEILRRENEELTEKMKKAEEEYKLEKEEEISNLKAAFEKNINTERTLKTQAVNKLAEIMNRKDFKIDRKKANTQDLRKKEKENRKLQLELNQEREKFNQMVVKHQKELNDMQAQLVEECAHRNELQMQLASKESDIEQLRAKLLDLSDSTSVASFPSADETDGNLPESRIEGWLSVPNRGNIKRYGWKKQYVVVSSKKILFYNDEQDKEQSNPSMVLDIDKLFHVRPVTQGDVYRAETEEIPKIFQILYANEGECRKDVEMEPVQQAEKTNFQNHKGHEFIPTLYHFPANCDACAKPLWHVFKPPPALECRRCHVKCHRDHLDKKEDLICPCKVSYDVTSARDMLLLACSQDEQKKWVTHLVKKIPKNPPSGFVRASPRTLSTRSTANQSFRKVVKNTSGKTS
Method in brief: as §1

[13] = read-out: % Enzyme Activity (relative to DMSO controls) Run 1
[14] = read-out: % Enzyme Activity (relative to DMSO controls) Run 2

T1 sequence (P12931 whole entry): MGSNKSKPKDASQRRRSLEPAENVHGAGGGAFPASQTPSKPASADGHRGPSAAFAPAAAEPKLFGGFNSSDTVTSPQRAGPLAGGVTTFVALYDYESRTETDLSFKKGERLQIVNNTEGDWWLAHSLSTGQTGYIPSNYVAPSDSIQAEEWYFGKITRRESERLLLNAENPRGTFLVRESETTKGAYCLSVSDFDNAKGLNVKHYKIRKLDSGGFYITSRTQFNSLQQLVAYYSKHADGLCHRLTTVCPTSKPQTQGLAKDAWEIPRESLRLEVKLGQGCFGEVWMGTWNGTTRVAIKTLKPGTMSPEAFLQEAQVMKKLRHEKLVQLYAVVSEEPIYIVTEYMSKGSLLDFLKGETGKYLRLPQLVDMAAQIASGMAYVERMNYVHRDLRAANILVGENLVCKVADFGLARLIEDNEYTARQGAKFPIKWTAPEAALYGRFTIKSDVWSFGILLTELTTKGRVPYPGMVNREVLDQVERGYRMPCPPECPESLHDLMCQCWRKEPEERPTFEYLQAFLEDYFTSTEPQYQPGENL

**Q.** `C=CC(=O)Nc1cccc(Nc2nc(Nc3ccc(OCCOC)c(F)c3)ncc2F)c1` [Compound 2] was tested. Which inhibition at 3 µM [1] did it give?
**A.** 72%

**Q.** And the remaining activity at 3 µM [1, 13]?
**A.** 28.2%

**Q.** What about the remaining activity at 3 µM [1, 14] of the same compound?
**A.** 27.9%

**Q.** And the inhibition at 3 µM [2]?
**A.** -6.67%

**Q.** What about the remaining activity at 3 µM [2, 13] of the same compound?
**A.** 108%

**Q.** What about the remaining activity at 3 µM [2, 14] of the same compound?
**A.** 106%

**Q.** And the inhibition at 3 µM [3]?
**A.** 1.8%

**Q.** What about the remaining activity at 3 µM [3, 13] of the same compound?
**A.** 97.9%

**Q.** And the remaining activity at 3 µM [3, 14]?
**A.** 98.5%

**Q.** And the inhibition at 3 µM [4]?
**A.** 92%

**Q.** What about the remaining activity at 3 µM [4, 13] of the same compound?
**A.** 7.97%

**Q.** What about the remaining activity at 3 µM [4, 14] of the same compound?
**A.** 7.95%

**Q.** And the inhibition at 3 µM [5]?
**A.** 8.34%

**Q.** And the remaining activity at 3 µM [5, 13]?
**A.** 91.3%

**Q.** And the remaining activity at 3 µM [5, 14]?
**A.** 92%

**Q.** What about the inhibition at 3 µM [6] of the same compound?
**A.** 37.9%

**Q.** And the remaining activity at 3 µM [6, 13]?
**A.** 60%

**Q.** What about the remaining activity at 3 µM [6, 14] of the same compound?
**A.** 64.1%

**Q.** What about the inhibition at 3 µM [7] of the same compound?
**A.** -32.5%

**Q.** And the remaining activity at 3 µM [7, 13]?
**A.** 136%

**Q.** What about the remaining activity at 3 µM [7, 14] of the same compound?
**A.** 129%

**Q.** What about the inhibition at 3 µM [8] of the same compound?
**A.** 9.1%

**Q.** And the remaining activity at 3 µM [8, 13]?
**A.** 89.5%

**Q.** And the remaining activity at 3 µM [8, 14]?
**A.** 92.3%

**Q.** What about the inhibition at 3 µM [9] of the same compound?
**A.** 0.37%

**Q.** And the remaining activity at 3 µM [9, 13]?
**A.** 99.7%

**Q.** What about the remaining activity at 3 µM [9, 14] of the same compound?
**A.** 99.5%

**Q.** And the inhibition at 3 µM [10]?
**A.** -4.41%

**Q.** What about the remaining activity at 3 µM [10, 13] of the same compound?
**A.** 104%

**Q.** And the remaining activity at 3 µM [10, 14]?
**A.** 105%

**Q.** And the inhibition at 3 µM [11]?
**A.** -12.8%

**Q.** What about the remaining activity at 3 µM [11, 13] of the same compound?
**A.** 110%

**Q.** What about the remaining activity at 3 µM [11, 14] of the same compound?
**A.** 116%

**Q.** And the inhibition at 3 µM [12]?
**A.** -6.39%

**Q.** What about the remaining activity at 3 µM [12, 13] of the same compound?
**A.** 108%

**Q.** And the remaining activity at 3 µM [12, 14]?
**A.** 105%
